The values below come from patent publication US3935203A, “Derivatives of 3-oxo-2,3-dihydro-1,4-benzoxazine” (CERPHA, priority 1972, dated 1976).

Data set [1] deals with pain induced by heat contact stimulation. In words: Analgesic activity, Eddy's test in mice (hot plate). The data set is classed as in vivo. To be noted: for ED50 / inhibition in vivo at 400 mg/kg / inhibition in vivo at 200 mg/kg: Mus musculus, po, 0.5 h; for ED50 / ED50 Eddy's test: per os, 30 minutes after administration, heat stimulus; for ED50 Eddy's test: 30 min; for inhibition in vivo at 400 mg/kg: 400 mg/kg per os; for inhibition in vivo at 200 mg/kg: 200 mg/kg per os. The protocol: (§1) Pain is induced by heat contact stimulation (mice placed on a heating plate kept at 56.5°C) and the time taken to react to the stimulus (licking of the front paws) is measured.
(§2) Batches of 10 animals selected at random are examined 30 minutes after the oral administration of the product to be tested in a gummy suspension.
(§3) The percentage of analgesic activity is established by taking as 100% activity the average response time of the control animals increased by 10 seconds.

Data set [2] can be described thus: in vivo. The note with it: mouse, po.
Data set [3] has as its system pain induced by the intraperitoneal injection of acetic acid. In words: Analgesic activity, Koster's test on mice (acetic acid writhing). The data set is classed as in vivo, male mice. The note with it: for ED50 / inhibition in vivo at 400 mg/kg / inhibition in vivo at 200 mg/kg: Mus musculus, po; for inhibition in vivo at 400 mg/kg: 400 mg/kg per os; for inhibition in vivo at 200 mg/kg: 200 mg/kg per os. The procedure:
(§4) The pain is induced by the intraperitoneal injection of 0.10 ml/10 g of a 3% acetic acid solution.
(§5) The painful crises thus obtained (writhing of the trunk, stretching of the hind legs) are counted for 20 minutes following the injection.
(§6) The product to be tested was administered 30 minutes before the pain had been induced in batches of 10 male mice distributed at random. The percentage of analgesic activity is represented by the percentage decrease in the number of reactions established in relation to the controls.

Data set [4] has as its system pain (heat stimulus and chemical stimulus). In words: Antalgic power compared with amidopyrine (Eddy's and Koster's tests). The note with it: per os, reference amidopyrine. The data set is classed as in vivo, mice. The protocol:
as §1, §2, §3, §4, §5, §6

For data set [5], the system named is kaolin oedema. In words: Anti-oedematous activity, kaolin oedema in rats (Wilhelmi and Domenjoz). In kind it is in vivo, male rats. The note with it: per os; for ED50: Rattus norvegicus, po, paw volume 5 hours after kaolin, read-out: Kaolin oedema test ED50 per os. The protocol:
3. […] ACTIVITY Kaolin oedema in rats in accordance with […] The product to be tested was orally administered to batches of 8 male rats distributed at random 30 minutes before the intraplantar injection of 0.15 ml. of a 10% kaolin suspension. The volume of the paw is measured by plethysmography 5 hours after injection of the irritant. For each rat, the percentage oedema is evaluated in relation to the initial volume. The percentage activity corresponds to the percentage decrease in oedema (average oedema of the treated animals in comparison with the average oedema of the control animals).

For data set [6] the following is noted: Table III.
The mark [7] stands for this setting: per os, 30 minutes before acetic acid, chemical stimulus.

SMILES strings stand for the structures. Bounds are passed on as bounds.

In the case of `Cc1c(N(C)C)c(=O)n(-c2ccccc2)n1C` [Amidopyrine, amidopyrine, reference compound], the 50% effective dose (ED50) in data set [1] worked out at 300 mg/kg; in data set [3] (setting [7]) it was 120 mg/kg. In addition, the LD50 in data set [2] amounted to 1850 mg/kg.
On to `CC1Oc2ccc(Cl)cc2N(CC(O)CO)C1=O` (stereo not drawn) [Example 1, 2-methyl-3-oxo-4-(2,3-dihydroxypropyl)-6-chloro-2,3-dihydro-1,4-benzoxazine], for which, in data set [1], the 50% effect level (ED50) was put at a dose of 60 mg/kg and the “ED50 Eddy's test” value came out at 63 mg/kg. The LD50 in data set [2] was 850 mg/kg. Further, in data set [3] (setting [7]), the ED50 is 60 mg/kg and the “ED50 Koster's test” value was 57 mg/kg. For the same compound, in data set [4], the “antalgic power relative to amidopyrine” value is reported as “as much as five times the activity of this reference product”.
With `CCC1Oc2ccc(Cl)cc2N(CC(O)CO)C1=O` (stereo not drawn) [Example 2, 2-ethyl-3-oxo-4-(2,3-dihydroxypropyl)-6-chloro-2,3-dihydro-1,4-benzoxazine], in data set [1], it took a dose of 60 mg/kg to reach the 50% effect level (ED50) and the “ED50 Eddy's test” value came out at 61 mg/kg. The compound also returned an LD50 in data set [2] of 1660 mg/kg. The ED50 in data set [3] (setting [7]) is 60 mg/kg. Further, the “antalgic power relative to amidopyrine” value in data set [4] was “as much as five times the activity of this reference product”.
For the compound `O=C1COc2ccc(Cl)cc2N1CC(O)CO` (stereo not drawn) [Example 3, 3-oxo-4-(2,3-dihydroxypropyl)-6-chloro-2,3-dihydro-1,4-benzoxazine], the results for the median effective dose (ED50) in data set [1], in data set [5] and in data set [3] (setting [7]) were 200 mg/kg, 200 mg/kg and 100 mg/kg, respectively. In addition, the “anti-oedematous activity compared with phenylbutazone” value in data set [5] (reference phenylbutazone) is on record as “comparable with that of phenylbutazone”. Also, the 50% lethal dose (LD50) in data set [2] was determined as 1700 mg/kg.
For the compound `CC1Oc2cc(Br)c(Cl)cc2N(CC(O)CO)C1=O` (stereo not drawn) [Example 4, 2-methyl-3-oxo-4-(2,3-dihydroxypropyl)-6-chloro-7-bromo-2,3-dihydro-1,4-benzoxazine], the inhibition in vivo at 400 mg/kg in data set [1] stood at 42%; in data set [3], 68%. In addition, the LD50 in data set [2] is greater than 1500 mg/kg.
In the case of `Cc1ccc2c(c1)N(CC(O)CO)C(=O)C(C)O2` (stereo not drawn) [Example 5, 2-methyl-3-oxo-4-(2,3-dihydroxypropyl)-6-methyl-2,3-dihydro-1,4-benzoxaine], the inhibition in vivo at 400 mg/kg was found to be 60% in data set [1] and 66% in data set [3]. For the same compound, in data set [2], the LD50 is greater than 1500 mg/kg.
The matching figures for `CCCc1cc(OC)c2c(c1)N(CC(O)CO)C(=O)C(C)O2` (stereo not drawn) [Example 6, 2-methyl-3-oxo-4-(2,3-dihydroxypropyl)-6-n-propyl-8-methoxy-2,3-dihydro-1,4-benzoxazine]: 52%, 46% and greater than 1500 mg/kg.
Take `CC1Oc2ccc([N+](=O)[O-])cc2N(CC(O)CO)C1=O` (stereo not drawn) [Example 7, 2-methyl-3-oxo-4-(2,3-dihydroxypropyl)-6-nitro-2,3-dihydro-1,4-benzoxazine]: the figures for the ED50 in data set [1], in data set [5] and in data set [3] (setting [7]) were 300 mg/kg, 400 mg/kg and 300 mg/kg, respectively. Moreover, the “DL50 per os in mice” value in data set [6] is given as greater than 1000 mg/kg. The compound also showed a 50% lethal dose (LD50) in data set [2] greater than 1000 mg/kg.
Turning to `CCC1Oc2ccccc2N(CC(O)CO)C1=O` (stereo not drawn) [Example 8, 2-ethyl-3-oxo-4-(2,3-dihydroxypropyl)-2,3-dihydro-1,4-benzoxazine], the results for the inhibition in vivo at 200 mg/kg in data set [1] and in data set [3] were 5% and 21%, respectively. Further, the LD50 in data set [2] was determined as 1200 mg/kg.
Take `CCCC1Oc2ccc(Cl)cc2N(CC(O)CO)C1=O` (stereo not drawn) [Example 9, 2-n-propyl-3-oxo-4-(2,3-dihydroxypropyl)-6-chloro-2,3-dihydro-1,4-benzoxazine]: the median effective dose (ED50) worked out at 100 mg/kg in data set [1] and 80 mg/kg in data set [3] (setting [7]). For the same compound, in data set [2], the median lethal dose (LD50) was greater than 1500 mg/kg.
For `CCC1Oc2ccc(Br)cc2N(CC(O)CO)C1=O` (stereo not drawn) [Example 10, 2-ethyl-3-oxo-4-(2,3-dihydroxypropyl)-6-bromo-2,3-dihydro-1,4-benzoxazine], in that order: 200 mg/kg, 300 mg/kg and greater than 1500 mg/kg.
`COc1ccc2c(c1)N(CC(O)CO)C(=O)C(C)O2` (stereo not drawn) [Example 11, 2-methyl-3-oxo-4-(2,3-dihydroxypropyl)-6-methoxy-2,3-dihydro-1,4-benzoxazine]: the results for the inhibition in vivo at 200 mg/kg in data set [1] and in data set [3] were 16% and 10%, respectively. For the same compound, in data set [5], the 50% effective dose (ED50) was determined as 200 mg/kg. The “DL50 per os in mice” value in data set [6] was greater than 1000 mg/kg. In addition, the 50% lethal dose (LD50) in data set [2] is greater than 1000 mg/kg.
On to `C=CCc1cc(OC)c2c(c1)N(CC(O)CO)C(=O)C(C)O2` (stereo not drawn) [Example 12, 2-methyl-3-oxo-4-(2,3-dihydroxypropyl)-6-allyl-8-methoxy-2,3-dihydro-1,4-benzoxazine], for which the median effective dose (ED50) in data set [1] and in data set [3] (setting [7]) was 300 mg/kg each time. In data set [2], this compound came in with an LD50 greater than 1500 mg/kg.
As to `CCCCC1Oc2ccc(Cl)cc2N(CC(O)CO)C1=O` (stereo not drawn) [Example 13, 2-n-butyl-3-oxo-4-(2,3-dihydroxypropyl)-6-chloro-2,3-dihydro-1,4-benzoxazine], the median effective dose (ED50) in data set [1] and in data set [3] (setting [7]) was 100 mg/kg in each case. In data set [2], the 50% lethal dose (LD50) is 1500 mg/kg.
With `CC(=O)OCC(CN1C(=O)C(C)Oc2ccc(Cl)cc21)OC(C)=O` (stereo not drawn) [Example 14, 2-methyl-3-oxo-4-(2,3-diacetoxypropyl)-6-chloro-2,3-dihydro-1,4-benzoxazine], the inhibition in vivo at 400 mg/kg in data set [1] turned out to be 43%; in data set [3], 35%. In addition, the median effective dose (ED50) in data set [5] worked out at 400 mg/kg. For the same compound, in data set [6], the “DL50 per os in mice” value was greater than 1500 mg/kg. The LD50 in data set [2] is greater than 1500 mg/kg.
For the compound `CCC1Oc2ccc(Cl)cc2N(CC(COC(C)=O)OC(C)=O)C1=O` (stereo not drawn) [Example 15, 2-ethyl-3-oxo-4-(2,3-diacetoxypropyl)-6-chloro-2,3-dihydro-1,4-benzoxazine], the inhibition in vivo at 200 mg/kg in data set [1] came to 14%; in data set [3], 20%. Also, the 50% effective dose (ED50) in data set [5] worked out at 400 mg/kg. The “DL50 per os in mice” value in data set [6] is given as greater than 1500 mg/kg. Also, the LD50 in data set [2] was greater than 1500 mg/kg.
As for `CC(=O)OCC(CN1C(=O)COc2ccc(Cl)cc21)OC(C)=O` (stereo not drawn) [Example 16, 3-oxo-4-(2,3-diacetoxypropyl)-6-chloro-2,3-dihydro-1,4-benzoxazine], the inhibition in vivo at 400 mg/kg came out at 28% in data set [1] and 51% in data set [3]. Also, the ED50 in data set [5] was found to be 400 mg/kg. Further, the “DL50 per os in mice” value in data set [6] is greater than 1500 mg/kg. The LD50 in data set [2] was greater than 1500 mg/kg.
As for `CCCCC1C(=O)N(c2ccccc2)N(c2ccccc2)C1=O` [Phenylbutazone, phenylbutazone, reference compound], in data set [5], the median effective dose (ED50) came to 200 mg/kg.

The ED50 is the dose that gives a 50% effect, or the effect in half of the subjects. The LD50 is the dose at which mortality reaches 50%. Usually inhibition in vivo stands for the relative decrease from the control value, in per cent.
